In patent publication US5532267A, “Amidinonaphthyl furancarboxylate derivatives and acid addition salts therof” (Torii & Co., Ltd., priority 1992, dated 1996):

Legend:
adjuvant arthritis = assay: Effectiveness in treating adjuvant arthritis (Mycobacterium butyricum); format: in vivo, rat; settings: 60 mg/kg, oral, day -1 to day 13
Method: Adjuvant arthritis is known as a representative model of autoimmune diseases and is a effective means of testing agents to treat human rheumatoid arthritis (Encyclopedia of Immunology, edited by I. M. Roitt, Academic Press, 1992; Otterness, I. G., et al., J. of Rheumatology (1991), volume 18, pages 505-511),
The method of experiment was as follows. A 0.6% Mycobacterium butyricum liquid paraffin suspension, 0.1 ml/animal, was administered to a rat at a subcutaneous site of left hind-limb sole to induce adjuvant arthritis. The present compound was orally administered (in the form of a suspension in water) consecutively from 1 day before the induction to 13 days after the induction. The efficacy of the present compound on adjuvant arthritis was evaluated by examining the swelling accompanied by red spots and subcutaneous knots at the fore-limb, hind-limb, tail, ear and periphery of eye with the lapse of days (on the 8th, 10th, 12th, 14th, 16th and 18th days after adjuvant administration), expressing the results in terms of scores according to the method of F. D. Wood et al. (Int. Arch. Allergy (1969), volume 35, pages 456-467), and calculating the percentage inhibition relative to the control group. Thus, the higher value of percentage inhibition indicates the higher effectiveness.

in vivo = settings: rat
Method: In the rat acute toxicity test, the LD50 was greater than 2,000 mg/kg (p.o. oral administration). The compound of Example 22 was tested in three groups.(five rats per group) of rats at dosages of (1) 2000 mg/kg, (2) 1000 mg/kg, and (3) 500 mg/kg; the compound was prepared in the form of a suspension in distilled water and administered orally.

C1r = target: T1, C1r (Homo sapiens, UniProt P00736); assay: anti-complement (anti-C1 esterase) activity, C1r hydrolysis of AAME (acetyl-arginine methyl ester); format: biochemical
T1 sequence (P00736 18-705): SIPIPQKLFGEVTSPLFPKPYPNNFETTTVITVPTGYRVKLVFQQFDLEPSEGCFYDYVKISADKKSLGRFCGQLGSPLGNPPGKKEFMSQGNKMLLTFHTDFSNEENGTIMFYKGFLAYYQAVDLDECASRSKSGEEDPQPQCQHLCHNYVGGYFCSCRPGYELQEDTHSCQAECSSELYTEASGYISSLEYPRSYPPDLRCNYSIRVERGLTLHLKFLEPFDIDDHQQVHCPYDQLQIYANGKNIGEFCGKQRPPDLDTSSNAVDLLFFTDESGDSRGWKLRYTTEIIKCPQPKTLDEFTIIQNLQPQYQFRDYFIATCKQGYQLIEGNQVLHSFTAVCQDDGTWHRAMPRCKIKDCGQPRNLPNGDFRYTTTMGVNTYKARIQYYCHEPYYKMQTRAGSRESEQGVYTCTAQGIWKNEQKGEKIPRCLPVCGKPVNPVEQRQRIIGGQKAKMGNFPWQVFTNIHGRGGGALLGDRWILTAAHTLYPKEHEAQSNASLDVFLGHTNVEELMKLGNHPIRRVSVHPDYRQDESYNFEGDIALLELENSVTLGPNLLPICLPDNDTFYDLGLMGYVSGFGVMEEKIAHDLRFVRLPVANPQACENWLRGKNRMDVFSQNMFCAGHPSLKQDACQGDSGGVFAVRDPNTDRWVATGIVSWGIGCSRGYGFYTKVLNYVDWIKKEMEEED

C1s = target: T2, C1s (Homo sapiens, UniProt P09871); assay: anti-complement (anti-C1 esterase) activity, C1s hydrolysis of ATEE (acetyltyrosine ethyl ester); format: biochemical
T2 sequence (P09871 16-688): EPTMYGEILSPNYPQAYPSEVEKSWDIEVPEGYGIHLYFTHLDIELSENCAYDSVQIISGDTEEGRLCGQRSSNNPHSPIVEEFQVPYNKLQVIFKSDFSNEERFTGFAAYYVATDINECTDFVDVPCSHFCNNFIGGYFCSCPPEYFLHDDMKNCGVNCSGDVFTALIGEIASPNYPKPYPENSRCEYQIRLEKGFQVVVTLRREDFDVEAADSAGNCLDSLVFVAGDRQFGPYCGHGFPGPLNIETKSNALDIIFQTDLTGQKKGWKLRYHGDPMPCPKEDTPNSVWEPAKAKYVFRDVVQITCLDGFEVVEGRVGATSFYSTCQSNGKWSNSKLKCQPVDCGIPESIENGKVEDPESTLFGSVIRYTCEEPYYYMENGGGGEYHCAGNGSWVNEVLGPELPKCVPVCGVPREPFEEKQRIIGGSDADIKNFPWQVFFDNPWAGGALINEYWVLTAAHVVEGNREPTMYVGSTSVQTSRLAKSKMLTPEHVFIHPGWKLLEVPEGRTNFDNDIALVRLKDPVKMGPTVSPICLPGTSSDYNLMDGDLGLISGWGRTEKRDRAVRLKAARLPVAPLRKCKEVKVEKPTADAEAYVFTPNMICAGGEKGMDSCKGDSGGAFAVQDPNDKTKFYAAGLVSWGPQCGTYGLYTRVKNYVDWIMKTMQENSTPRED
Method: The anti-C1 esterase (C1r, C1s) activity was determined according to the method of Okamura et al. (Biochem. Biophys. Acta (1973), volume 295, pages 252-257). […] The values for C1s represent molar concentrations (IC50) of test compounds which inhibit 50% of the activity of C1s to hydrolyze ATEE (acetyltyrosine ethyl ester).

[1] = tested on: rabbit serum albumin (RSA) nephritis; assay: Effect of TO-195 on rabbit serum albumin (RSA) nephritis; format: in vivo, rat (Sprague Dawley); settings: oral
Excerpt: About 90% of human glomerular nephritis has been described as being immune complex nephritis which is caused by deposition in the glomeruli of immune complexes formed by the binding of antigens with antibodies in the blood. Effectiveness in treating rabbit serum albumin (RSA) nephritis in rats, which is known as an experimental model of nephritis caused by antigen-antibody reaction (Folia pharmacol. japon, 78: 491-499 (1981)), is shown below:
Sprague Dawley rats were immunized by subcutaneous injection in the back of 3 mg rabbit serum albumin in complete Freud's adjuvant (CFA). Two weeks after the subcutaneous injection, the rats were administered 1 mg of RSA (in saline) into the tail vein every other day for 10 weeks. Seven weeks after the first subcutaneous injection, the rats were also boosted with 3 mg RSA as in the first subcutaneous injection. The control group was injected with saline. Two weeks after the first IV injection, rats with more than 100 mg/day proteinurea after IV administration of RSA were divided into two groups each consisting of five rats. One group was orally given 30 mg/kg of TO-195 (in a suspension in water) twice a day for 20 days. The other group (untreated) and the control group were given distilled water p.o. (oral administration). The index of effectiveness of TO-195 was protein concentration in urine.

Cl.N=C(N)c1ccc2cc(OC(=O)c3ccc(CNC(=O)CCCC(=O)O)o3)ccc2c1 [Example 22, 6-Amidino-2-naphthyl 5-(4-carboxybutyrylaminomethyl)furan-2-carboxylate hydrochloride]
Percentage inhibition (arthritis score) (adjuvant arthritis): 97.3% | LD50 at 336 h (in vivo; in vivo, po): > 2000 mg/kg | general conditions and survival (in words) (in vivo; oral, up to 2,000 mg/kg, two weeks observation): no changes were found | C1r inhibition (in words) (C1r): inhibitor | inhibition at 10 µM (C1r; at a concentration of 1 × 10^-5 M, read-out: Clr: percentage inhibition): 49% | C1s inhibition (in words) (C1s): inhibitor | IC50 (C1s; hydrolysis of ATEE, read-out: Cls: molar concentration inhibiting 50% of C1s activity (IC50)): 250 nM | Protein concentration in urine ([1]; 30 mg/kg twice a day, 20 days, mean ± standard deviation, five animals, untreated 385.9 ± 187.23, control 8.5 ± 2.62): 152.1 ± 49.11 mg/mL | N-acetyl-β-D-glucosamineidase excretion (in words) ([1]; 30 mg/kg×2/day): decreased | alkaline phosphatase excretion (in words) ([1]; 30 mg/kg×2/day): decreased | urinary protein excretion (in words) ([1]; 30 mg/kg×2/day): decreased urinary protein excretion
